Measurements published in ChEMBL document CHEMBL4184210, “Optimization of novel monobactams with activity against carbapenem-resistant Enterobacteriaceae - Identification of LYS228” (Bioorg Med Chem Lett, 2018).
Converted amounts (≈) assume the structure as drawn.

How the values were obtained:
[1] = tested on: Escherichia coli; assay: microbe, parasite or virus in culture
Description: Antimicrobial activity against Escherichia coli expressing beta-lactamase CMY-2 by CLSI broth microdilution method

[2] = tested on: Escherichia coli; assay: Antimicrobial activity against Escherichia coli expressing beta-lactamase NDM-1 by CLSI broth microdilution method; format: functional
[3] = tested on: Escherichia coli; assay: Antimicrobial activity against Escherichia coli expressing beta-lactamase KPC-2 by CLSI broth microdilution method; format: functional
[4] = tested on: Escherichia coli; assay: microbe, parasite or virus in culture; remark: listed apart in the source
Description: Antimicrobial activity against Escherichia coli expressing beta-lactamase AmpC by CLSI broth microdilution method

[5] = tested on: Pseudomonas aeruginosa; assay: Antimicrobial activity against Pseudomonas aeruginosa expressing nalB/delta-mexXY/delta-mexCDoprJ/delta-ampC by CLSI broth microdilution method; format: functional
[6] = tested on: Pseudomonas aeruginosa; assay: Antimicrobial activity against Pseudomonas aeruginosa ATCC 27853 by CLSI broth microdilution method; format: functional
[7] = Chemical stability in pH 7.4 potassium phosphate buffer assessed as half life for compound hydrolysis at 37 degC by UPLC and mass spectrometry; format: physicochemical
[8] = tested on: Escherichia coli; assay: microbe, parasite or virus in culture; remark: listed apart in the source
Description: Antimicrobial activity against Escherichia coli expressing beta-lactamase SHV-12 by CLSI broth microdilution method

[9] = tested on: Escherichia coli; assay: microbe, parasite or virus in culture; remark: listed apart in the source
Description: Antimicrobial activity against Escherichia coli expressing beta-lactamase CTXM-15 by CLSI broth microdilution method

[10] = tested on: Escherichia coli; assay: microbe, parasite or virus in culture; remark: listed apart in the source
Description: Antimicrobial activity against Escherichia coli expressing beta-lactamase TEM-10 by CLSI broth microdilution method

[11] = tested on: Escherichia coli; assay: microbe, parasite or virus in culture; remark: listed apart in the source
Description: Antimicrobial activity against wild type Escherichia coli by CLSI broth microdilution method

[12] = tested on: Pseudomonas aeruginosa; assay: Antimicrobial activity against Pseudomonas aeruginosa expressing delta-mexB/delta-mexXY/delta-mexCD and delta-ampC mutant by CLSI broth microdilution method; format: functional
[13] = tested on: Pseudomonas aeruginosa; assay: Antimicrobial activity against Pseudomonas aeruginosa expressing delta-mexB/mexXY/delta-ampDh2/ delta-ampD by CLSI broth microdilution method; format: functional
[14] = tested on: Escherichia coli; assay: microbe, parasite or virus in culture; remark: listed apart in the source
Description: Antimicrobial activity against Escherichia coli expressing beta-lactamase DHA by CLSI broth microdilution method

[15] = biological target: GABA A receptor alpha-2/beta-2/gamma-2 (Homo sapiens) (UniProt P47870+P18507+P47869); assay: Inhibition of recombinant human GABA A alpha2beta2gamma2 receptor expressed in CHO-K1 cells at 300 uM incubated at room temperature for 15 mins before the GABA addition fluorescence spectrometry; format: cell-based
[16] = tested on: Escherichia coli; assay: microbe, parasite or virus in culture; remark: listed apart in the source
Description: Antimicrobial activity against Escherichia coli expressing beta-lactamase NMC-A by CLSI broth microdilution method

[17] = tested on: Escherichia coli; assay: Antimicrobial activity against Escherichia coli expressing beta-lactamase TEM-1 by CLSI broth microdilution method; format: functional
[18] = tested on: Escherichia coli; assay: microbe, parasite or virus in culture; remark: listed apart in the source
Description: Antimicrobial activity against Escherichia coli expressing beta-lactamase IMI-1 by CLSI broth microdilution method

[19] = tested on: Escherichia coli; assay: microbe, parasite or virus in culture; remark: listed apart in the source
Description: Antimicrobial activity against Escherichia coli expressing beta-lactamase MIR-1 by CLSI broth microdilution method

[20] = tested on: Escherichia coli; assay: microbe, parasite or virus in culture; remark: listed apart in the source
Description: Antimicrobial activity against Escherichia coli expressing beta-lactamase CTXM-3 by CLSI broth microdilution method

[21] = tested on: Escherichia coli; assay: microbe, parasite or virus in culture; remark: listed apart in the source
Description: Antimicrobial activity against Escherichia coli expressing beta-lactamase TEM-47 by CLSI broth microdilution method

[22] = tested on: Escherichia coli; assay: microbe, parasite or virus in culture; remark: listed apart in the source
Description: Antimicrobial activity against Escherichia coli expressing beta-lactamase Oxa-40 by CLSI broth microdilution method

[23] = tested on: Escherichia coli; assay: microbe, parasite or virus in culture; remark: listed apart in the source
Description: Antimicrobial activity against Escherichia coli expressing beta-lactamase VIM-1 by CLSI broth microdilution method

[24] = tested on: Escherichia coli; assay: microbe, parasite or virus in culture; remark: listed apart in the source
Description: Antimicrobial activity against Escherichia coli expressing beta-lactamase TEM-16 by CLSI broth microdilution method

[25] = tested on: Escherichia coli; assay: microbe, parasite or virus in culture; remark: listed apart in the source
Description: Antimicrobial activity against Escherichia coli expressing beta-lactamase Oxa-146 by CLSI broth microdilution method

[26] = tested on: Escherichia coli; assay: microbe, parasite or virus in culture; remark: listed apart in the source
Description: Antimicrobial activity against Escherichia coli expressing beta-lactamase Oxa-225 by CLSI broth microdilution method

[27] = tested on: Escherichia coli; assay: microbe, parasite or virus in culture; remark: listed apart in the source
Description: Antimicrobial activity against Escherichia coli expressing beta-lactamase VEB-7 by CLSI broth microdilution method

[28] = tested on: Escherichia coli; assay: microbe, parasite or virus in culture; remark: listed apart in the source
Description: Antimicrobial activity against Escherichia coli expressing beta-lactamase GIM-1 by CLSI broth microdilution method

[29] = tested on: Escherichia coli; assay: microbe, parasite or virus in culture; remark: listed apart in the source
Description: Antimicrobial activity against Escherichia coli expressing beta-lactamase PER-4 by CLSI broth microdilution method

[30] = tested on: Escherichia coli; assay: Antimicrobial activity against Escherichia coli expressing beta-lactamase NDM-5 by CLSI broth microdilution method; format: functional
[31] = tested on: Escherichia coli; assay: microbe, parasite or virus in culture; remark: listed apart in the source
Description: Antimicrobial activity against Escherichia coli expressing beta-lactamase Oxa-23 by CLSI broth microdilution method

[32] = tested on: Escherichia coli; assay: microbe, parasite or virus in culture; remark: listed apart in the source
Description: Antimicrobial activity against Escherichia coli expressing beta-lactamase VEB-4 by CLSI broth microdilution method

[33] = tested on: Escherichia coli; assay: microbe, parasite or virus in culture; remark: listed apart in the source
Description: Antimicrobial activity against Escherichia coli expressing beta-lactamase KPC-8 by CLSI broth microdilution method

[34] = tested on: Escherichia coli; assay: microbe, parasite or virus in culture; remark: listed apart in the source
Description: Antimicrobial activity against Escherichia coli expressing beta-lactamase PER-1 by CLSI broth microdilution method

[35] = tested on: Escherichia coli; assay: microbe, parasite or virus in culture; remark: listed apart in the source
Description: Antimicrobial activity against Escherichia coli expressing beta-lactamase IMP-1 by CLSI broth microdilution method

[36] = tested on: Escherichia coli; assay: microbe, parasite or virus in culture; remark: listed apart in the source
Description: Antimicrobial activity against Escherichia coli expressing beta-lactamase KPC-3 by CLSI broth microdilution method

[37] = tested on: Escherichia coli; assay: microbe, parasite or virus in culture; remark: listed apart in the source
Description: Antimicrobial activity against Escherichia coli expressing beta-lactamase Oxa-160 by CLSI broth microdilution method

[38] = tested on: Escherichia coli; assay: microbe, parasite or virus in culture; remark: listed apart in the source
Description: Antimicrobial activity against Escherichia coli expressing beta-lactamase SME-1 by CLSI broth microdilution method

[39] = tested on: Escherichia coli; assay: microbe, parasite or virus in culture; remark: listed apart in the source
Description: Antimicrobial activity against Escherichia coli expressing beta-lactamase PER-2 by CLSI broth microdilution method

[40] = tested on: Escherichia coli; assay: microbe, parasite or virus in culture; remark: listed apart in the source
Description: Antimicrobial activity against Escherichia coli expressing beta-lactamase Oxa-10 by CLSI broth microdilution method

[41] = tested on: Escherichia coli; assay: microbe, parasite or virus in culture; remark: listed apart in the source
Description: Antimicrobial activity against Escherichia coli expressing beta-lactamase Oxa-18 by CLSI broth microdilution method

[42] = tested on: Escherichia coli; assay: microbe, parasite or virus in culture; remark: listed apart in the source
Description: Antimicrobial activity against Escherichia coli expressing beta-lactamase TEM-24 by CLSI broth microdilution method

[43] = tested on: Escherichia coli; assay: microbe, parasite or virus in culture; remark: listed apart in the source
Description: Antimicrobial activity against Escherichia coli expressing beta-lactamase P99 by CLSI broth microdilution method

[44] = tested on: Escherichia coli; assay: microbe, parasite or virus in culture; remark: listed apart in the source
Description: Antimicrobial activity against Escherichia coli expressing beta-lactamase Oxa-48 by CLSI broth microdilution method

[45] = tested on: Escherichia coli; assay: microbe, parasite or virus in culture; remark: listed apart in the source
Description: Antimicrobial activity against Escherichia coli expressing beta-lactamase TEM-121 by CLSI broth microdilution method

[46] = tested on: Escherichia coli; assay: microbe, parasite or virus in culture; remark: listed apart in the source
Description: Antimicrobial activity against Escherichia coli expressing beta-lactamase KPC-4 by CLSI broth microdilution method

[47] = tested on: Escherichia coli; assay: Antimicrobial activity against Escherichia coli expressing beta-lactamase VEB-1 by CLSI broth microdilution method; format: functional
[48] = tested on: Escherichia coli; assay: microbe, parasite or virus in culture; remark: listed apart in the source
Description: Antimicrobial activity against Escherichia coli expressing beta-lactamase Oxa-51 by CLSI broth microdilution method

[49] = tested on: Escherichia coli; assay: microbe, parasite or virus in culture; remark: listed apart in the source
Description: Antimicrobial activity against Escherichia coli expressing beta-lactamase SPM-1 by CLSI broth microdilution method

[50] = tested on: Escherichia coli; assay: microbe, parasite or virus in culture; remark: listed apart in the source
Description: Antimicrobial activity against Escherichia coli expressing beta-lactamase GES-1 by CLSI broth microdilution method

[51] = tested on: Escherichia coli; assay: microbe, parasite or virus in culture; remark: listed apart in the source
Description: Antimicrobial activity against Escherichia coli expressing beta-lactamase Oxa-181 by CLSI broth microdilution method

Structure (SMILES): CC(C)(O/N=C(\C(=O)N[C@@H]1C(=O)N(S(=O)(=O)O)[C@@H]1Cn1cncn1)c1csc(N)n1)C(=O)O (stereo in doubt)
- MIC [1]: 8 µg/mL (≈ 15.9 µM)
- MIC [2]: 0.5 µg/mL (≈ 0.995 µM)
- MIC [3]: 1 µg/mL (≈ 1.99 µM)
- MIC [4]: 16 µg/mL (≈ 31.8 µM)
- MIC [5]: > 64 µg/mL
- MIC [6]: 32 µg/mL (≈ 63.7 µM)
- half-life [7]: 9.71 days
- MIC [8]: 1 µg/mL (≈ 1.99 µM)
- MIC [9]: 0.5 µg/mL (≈ 0.995 µM)
- MIC [10]: 1 µg/mL (≈ 1.99 µM)
- MIC [11]: 0.5 µg/mL (≈ 0.995 µM)
- MIC [12]: 1 µg/mL (≈ 1.99 µM)
- MIC [13]: > 64 µg/mL

Structure (SMILES): N=C(NC1CCNCC1)c1ccc(OC[C@H](O/N=C(\C(=O)N[C@@H]2C(=O)N(S(=O)(=O)O)[C@@H]2Cn2cncn2)c2csc(N)n2)C(=O)O)cc1 (stereo in doubt)
- MIC [14]: 1 µg/mL (≈ 1.42 µM)
- inhibition [15]: 35%
- MIC [1]: 0.5 µg/mL (≈ 0.708 µM)
- MIC [16]: 0.125 µg/mL (≈ 0.177 µM)
- MIC [17]: 0.25 µg/mL (≈ 0.354 µM)
- MIC [18]: 0.125 µg/mL (≈ 0.177 µM)
- MIC [2]: 0.125 µg/mL (≈ 0.177 µM)
- MIC [19]: 0.25 µg/mL (≈ 0.354 µM)
- MIC [20]: 0.125 µg/mL (≈ 0.177 µM)
- MIC [21]: 0.125 µg/mL (≈ 0.177 µM)
- MIC [22]: 0.25 µg/mL (≈ 0.354 µM)
- MIC [23]: 0.125 µg/mL (≈ 0.177 µM)
- MIC [24]: 0.25 µg/mL (≈ 0.354 µM)
- MIC [25]: 1 µg/mL (≈ 1.42 µM)
- MIC [26]: 0.25 µg/mL (≈ 0.354 µM)
- MIC [27]: 64 µg/mL (≈ 90.7 µM)
- MIC [3]: 0.125 µg/mL (≈ 0.177 µM)
- MIC [28]: 0.125 µg/mL (≈ 0.177 µM)
- MIC [29]: > 64 µg/mL
- MIC [30]: 0.5 µg/mL (≈ 0.708 µM)
- MIC [31]: 0.125 µg/mL (≈ 0.177 µM)
- MIC [32]: 64 µg/mL (≈ 90.7 µM)
- MIC [33]: 0.5 µg/mL (≈ 0.708 µM)
- MIC [34]: > 64 µg/mL
- MIC [4]: 0.25 µg/mL (≈ 0.354 µM)
- MIC [35]: 0.125 µg/mL (≈ 0.177 µM)
- MIC [36]: 0.25 µg/mL (≈ 0.354 µM)
- MIC [5]: 8 µg/mL (≈ 11.3 µM)
- MIC [37]: 0.25 µg/mL (≈ 0.354 µM)
- MIC [6]: 2 µg/mL (≈ 2.83 µM)
- MIC [38]: 0.125 µg/mL (≈ 0.177 µM)
- MIC [8]: 0.5 µg/mL (≈ 0.708 µM)
- MIC [9]: 0.125 µg/mL (≈ 0.177 µM)
- MIC [39]: > 64 µg/mL
- MIC [40]: 0.125 µg/mL (≈ 0.177 µM)
- MIC [41]: 32 µg/mL (≈ 45.3 µM)
- MIC [10]: 1 µg/mL (≈ 1.42 µM)
- MIC [42]: 0.5 µg/mL (≈ 0.708 µM)
- MIC [11]: 0.125 µg/mL (≈ 0.177 µM)
- MIC [43]: 0.5 µg/mL (≈ 0.708 µM)
- MIC [44]: 0.125 µg/mL (≈ 0.177 µM)
- MIC [45]: 1 µg/mL (≈ 1.42 µM)
- MIC [46]: 1 µg/mL (≈ 1.42 µM)
- MIC [47]: 64 µg/mL (≈ 90.7 µM)
- MIC [48]: 0.125 µg/mL (≈ 0.177 µM)
- MIC [12]: 1 µg/mL (≈ 1.42 µM)
- MIC [13]: 16 µg/mL (≈ 22.7 µM)
- MIC [49]: 0.125 µg/mL (≈ 0.177 µM)
- MIC [50]: 0.25 µg/mL (≈ 0.354 µM)
- MIC [51]: 0.25 µg/mL (≈ 0.354 µM)

Structure (SMILES): Nc1nc(/C(=N/OC2(C(=O)O)CC2)C(=O)N[C@@H]2C(=O)N(S(=O)(=O)O)[C@H]2CN2CCOC2=O)cs1 (stereo in doubt)
- MIC [1]: 2 µg/mL (≈ 3.86 µM)
- MIC [2]: 0.25 µg/mL (≈ 0.482 µM)
- MIC [3]: 0.5 µg/mL (≈ 0.964 µM)
- MIC [4]: 0.5 µg/mL (≈ 0.964 µM)
- MIC [5]: > 64 µg/mL
- MIC [6]: > 64 µg/mL
- half-life [7]: 18.8 days
- MIC [8]: 64 µg/mL (≈ 123 µM)
- MIC [9]: 0.5 µg/mL (≈ 0.964 µM)
- MIC [10]: 32 µg/mL (≈ 61.7 µM)
- MIC [11]: 0.25 µg/mL (≈ 0.482 µM)
- MIC [12]: 2 µg/mL (≈ 3.86 µM)
- MIC [13]: > 64 µg/mL
